# The supplement of paper PMC10307832
# What was measured:
# Assay in all cases: relative viability (nuclei count vs DMSO), 5 days (fraction); higher = more cells survive
# [1] = compound: C[C@]1(O)C[C@@H](c2nc(-c3ccc4ccc(-c5ccccc5)nc4c3)c3c(N)nccn32)C1 [Linsitinib] + CS(=O)(=O)CCNCc1ccc(-c2ccc3ncnc(Nc4ccc(OCc5cccc(F)c5)c(Cl)c4)c3c2)o1 [Lapatinib] (partner 2 µM)
# In short: (§1)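 Lung cancer cell lines in 1536-well plates got either a single drug or a fixed anchor-drug dose together with five library-drug doses (not always all listed) in √10 steps, by pin tool, on the day after seeding. Nuclei were counted after 5 days, and relative viability is the treated-to-vehicle ratio of nuclei counts. Values are medians of duplicate plates.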
# [2] = compound: C[C@]1(O)C[C@@H](c2nc(-c3ccc4ccc(-c5ccccc5)nc4c3)c3c(N)nccn32)C1 [Linsitinib] + Nc1nc2[nH]cc(CCc3ccc(C(=O)N[C@@H](CCC(=O)O)C(=O)O)cc3)c2c(=O)[nH]1 [Pemetrexed] (partner 0.2 µM)
# In short: as §1
# [3] = compound: Cc1ccc(C(=O)N(CCCN)[C@@H](c2nc3cc(Cl)ccc3c(=O)n2Cc2ccccc2)C(C)C)cc1 [Ispinesib] + COc1cccc2cc(-c3nc([C@H]4CC[C@H](C(=O)O)CC4)n4ncnc(N)c34)[nH]c12 [OSI-027] (partner 0.5 µM)
# In short: as §1
# [4] = compound: Cc1ccc(C(=O)N(CCCN)[C@@H](c2nc3cc(Cl)ccc3c(=O)n2Cc2ccccc2)C(C)C)cc1 [Ispinesib] + N=C(N)NC(=N)NCCc1ccccc1 [Phenformin] (partner 250 µM)
# In short: as §1
Cell Line,relative viability ([1]; first compound 0.01 µM),relative viability ([1]; first compound 0.03162 µM),relative viability ([1]; first compound 0.1 µM),relative viability ([1]; first compound 1 µM),relative viability ([2]; first compound 0.01 µM),relative viability ([2]; first compound 0.03162 µM),relative viability ([2]; first compound 0.1 µM),relative viability ([2]; first compound 1 µM),relative viability ([3]; first compound 0.001 µM),relative viability ([3]; first compound 0.003162 µM),relative viability ([3]; first compound 0.01 µM),relative viability ([3]; first compound 0.03162 µM),relative viability ([3]; first compound 0.1 µM),relative viability ([4]; first compound 0.001 µM),relative viability ([4]; first compound 0.003162 µM),relative viability ([4]; first compound 0.01 µM),relative viability ([4]; first compound 0.03162 µM),relative viability ([4]; first compound 0.1 µM),relative viability ([1]; first compound 0.3162 µM),relative viability ([2]; first compound 0.3162 µM)
HOP-62,1.06,1.15,1.01,0.631,0.325,0.251,0.311,0.281,0.756,1.07,1.05,0.76,0.444,0.774,0.728,0.709,0.632,0.225,–,–
LC-2-ad,0.934,0.691,0.941,0.766,0.272,0.264,0.256,0.259,0.808,0.855,0.973,0.352,0.264,0.646,0.638,0.611,0.285,0.207,0.332,0.266
NCI-H522,–,–,–,–,0.831,0.839,1.01,0.839,0.746,0.759,0.715,0.555,0.414,0.613,0.627,0.694,0.603,0.349,–,0.652
NCI-H322M,0.63,0.612,0.567,0.507,0.612,0.605,0.582,0.523,0.621,0.529,0.549,0.448,0.331,0.874,0.891,0.82,0.39,0.389,0.933,0.59
SK-LU-1,0.889,0.902,0.987,0.815,0.913,0.686,0.997,0.985,0.395,0.386,0.445,0.216,0.199,0.555,0.627,0.561,0.251,0.203,–,0.894
NCI-H1734,1.05,1.15,1.05,0.778,0.413,0.324,0.404,0.408,0.609,0.585,0.659,0.459,0.177,0.455,0.379,0.414,0.239,0.156,0.714,0.417
HCC-44,1.02,0.859,0.983,0.63,0.624,0.511,0.618,0.6,0.458,0.812,0.505,0.484,0.151,0.252,0.175,0.146,0.1,0.0891,0.357,0.555
NCI-H1703,1.06,–,1.52,1.09,–,–,–,–,–,–,–,–,–,–,–,–,–,–,1.38,–
NCI-H2170,0.266,0.256,0.276,0.228,0.255,0.241,0.251,0.276,0.743,0.644,0.75,0.354,0.191,0.429,0.462,0.401,0.281,0.178,0.256,–
NCI-H1395,1.08,0.803,1.12,0.906,0.77,–,0.979,0.835,0.642,0.681,0.67,0.384,0.316,0.491,0.487,0.514,0.354,0.292,0.83,0.673
NCI-H1355,1.04,0.983,0.865,0.546,1.11,0.759,0.945,0.637,0.352,0.442,0.427,0.316,0.261,0.422,0.465,0.495,0.291,0.315,0.547,0.798
NCI-H1650,0.8,0.84,0.777,0.481,0.301,0.279,0.379,0.308,0.573,0.718,0.623,0.174,0.271,0.512,0.467,0.407,0.182,0.305,0.164,0.334
IA-LM,0.962,1.02,0.854,0.437,–,–,–,–,–,–,–,–,–,–,–,–,–,–,0.61,–
NCI-H1666,0.806,0.506,0.477,0.183,0.823,0.625,0.83,0.741,0.749,0.889,0.864,0.712,0.476,0.524,0.6,0.541,0.475,0.343,0.163,0.722
HCC-78,0.364,0.651,0.514,0.542,–,0.897,0.913,0.925,0.439,0.448,0.368,0.345,0.318,0.738,0.896,0.743,0.51,0.543,0.676,0.882
H3255,0.247,0.284,0.19,0.206,0.457,0.566,0.533,0.521,0.577,0.574,0.588,0.552,0.414,0.347,0.37,0.333,0.259,0.259,0.245,0.557
NCI-H23,1.19,0.904,1.04,0.587,0.78,0.474,0.786,0.419,0.581,0.656,0.808,0.235,0.201,0.921,0.752,0.795,0.61,0.171,0.21,0.394
NCI-H1944,0.787,0.833,0.872,0.46,0.597,0.574,0.661,0.492,0.398,0.449,0.426,0.338,0.17,0.199,0.247,0.206,0.167,0.106,0.527,0.426
NCI-H1651,0.761,0.772,0.78,0.566,0.345,0.489,0.56,0.596,0.837,0.696,0.848,0.684,0.137,0.365,0.413,0.374,0.299,0.121,0.667,0.608
EBC-1,0.259,0.26,0.248,0.2,–,–,–,–,–,–,–,–,–,–,–,–,–,–,0.244,–

Cell Line,relative viability ([1]; first compound 0.01 µM),relative viability ([1]; first compound 0.03162 µM),relative viability ([1]; first compound 0.1 µM),relative viability ([1]; first compound 1 µM),relative viability ([2]; first compound 0.01 µM),relative viability ([2]; first compound 0.03162 µM),relative viability ([2]; first compound 0.1 µM),relative viability ([2]; first compound 1 µM),relative viability ([3]; first compound 0.001 µM),relative viability ([3]; first compound 0.003162 µM),relative viability ([3]; first compound 0.01 µM),relative viability ([3]; first compound 0.03162 µM),relative viability ([3]; first compound 0.1 µM),relative viability ([4]; first compound 0.001 µM),relative viability ([4]; first compound 0.003162 µM),relative viability ([4]; first compound 0.01 µM),relative viability ([4]; first compound 0.03162 µM),relative viability ([4]; first compound 0.1 µM),relative viability ([1]; first compound 0.3162 µM),relative viability ([2]; first compound 0.3162 µM)
COR-L 105,0.452,0.35,0.357,0.296,0.963,1.1,1.23,0.984,0.769,0.603,0.585,0.266,0.305,0.602,0.455,0.366,0.216,0.258,0.325,0.771
RERF-LC-KJ,0.8,0.846,0.826,0.645,0.414,0.461,0.48,0.491,0.527,0.541,0.405,0.246,0.268,0.422,0.365,0.33,0.217,0.253,0.554,0.349
NCI-H1793,0.786,0.822,0.751,0.478,0.834,0.819,0.842,0.63,0.275,0.343,0.294,0.22,0.16,0.375,0.357,0.448,0.278,0.133,0.43,0.584
CAL-12T,0.705,0.613,0.655,0.518,1.25,0.946,1.23,1.13,0.737,0.584,0.701,0.166,0.177,0.515,0.57,0.592,0.139,0.172,0.576,1.14
NCI-H1993,0.784,0.793,0.76,0.684,0.59,0.621,0.565,0.404,0.518,0.601,0.565,0.514,0.442,0.537,0.483,0.543,0.518,0.436,0.498,0.449
LXF-289,0.924,0.911,0.901,0.886,0.879,0.88,0.927,0.861,0.813,0.834,0.806,0.593,0.0721,0.515,0.527,0.541,0.392,0.0531,0.643,0.777
NCI-H1792,0.903,0.847,0.706,0.649,1.05,0.695,0.891,0.321,0.889,1.09,0.743,0.862,0.356,0.396,0.317,0.257,0.0806,0.154,0.667,0.51
A549,0.981,1.02,0.816,0.443,–,–,–,–,–,–,–,–,–,0.12,0.18,0.899,0.0923,0.048,0.783,–
ChaGo-K-1,–,–,–,–,0.263,0.243,0.271,0.261,0.529,0.627,0.582,0.627,0.222,0.519,0.5,0.529,0.535,0.172,–,–
NCI-H441,–,–,–,–,0.246,0.284,0.259,0.291,0.582,0.738,0.517,0.175,0.285,0.977,0.823,0.84,0.247,0.301,–,0.234
NCI-H1648,–,–,–,–,0.95,0.553,0.658,0.826,0.274,0.312,0.212,0.226,0.238,–,–,–,–,–,–,0.592
SW 900,–,–,–,–,0.484,0.44,0.478,0.405,0.751,0.617,0.553,0.345,0.225,0.619,0.41,0.812,0.427,0.21,–,0.438
ABC-1,1.13,1.5,1.32,1.21,–,–,–,–,0.488,0.524,0.58,0.203,0.283,0.278,0.223,0.289,0.197,0.226,1.34,–
NCI-H727,0.716,0.724,0.863,0.377,–,–,–,–,0.856,0.707,0.604,0.404,0.361,0.601,0.6,0.385,0.466,0.309,0.428,–
NCI-H2342,–,–,–,–,0.731,0.746,0.732,0.704,0.631,0.741,0.593,0.48,0.456,0.671,0.634,0.685,0.523,0.378,–,0.82
NCI-H1623,–,–,–,–,–,–,–,–,0.433,0.439,0.451,0.406,0.4,0.587,0.597,0.617,0.563,0.396,–,–
NCI-H1299,0.989,0.89,0.996,1.01,–,–,–,–,–,–,–,–,–,–,–,–,–,–,0.952,–
LCLC-103H,–,–,–,–,0.441,0.459,0.46,0.505,0.562,0.585,0.527,0.366,0.357,0.34,0.389,0.366,0.293,0.269,–,0.341
Calu-6,0.98,0.949,1.18,0.947,–,–,–,–,–,–,–,–,–,–,–,–,–,–,0.985,–
